Values of other authors as cited in patent publication US20070224216A1, “Methods and Compositions Related to Antiviral Therapy Using Algae and Cyanobacteria” (priority 2004, published 2007).

Row | Substance | toxicity to uninfected cells (uninfected cells) | plasma concentrations after oral administration (rat, in vivo, po) | thrombosis in the rat jugular vein model (rats, oral)
1 | calcium spirulan | No toxicity | – | –
2 | heparin [oral heparins] | – | less than 1% | reduction of thrombosis
